# Reference: patent US9161893B2, “Use, as antidandruff agent, of (ethoxyhydroxyphenyl) alkyl ketone or ethoxyhydroxyalkylphenol compounds” (L'OREAL, priority 2011, dated 2015)
# Columns and labels:
# Malassezia globosa = experiment: Antifungal growth inhibition on MLNA agar, scored against growth control; format: cell-based; settings: for Inhibition score Malassezia globosa: MLNA agar, at least 5 days at 30° C.
# Description: (§1) A solution containing 2% by weight of test compound is prepared in “modified Leeming and Notman liquid (MLNA)” in the following way: 0.2048 g of test compound is weighed out into qs for 10 ml of modified Leeming and Notman liquid; solubilization is carried out by heating and the use of ultrasound. The solutions of test product are twice as concentrated as the final test concentration, in order to take into account the dilution when they are brought into contact with the Malassezia suspension. One of the previously prepared solutions at 2% is diluted to ½ in modified Leeming and Notman liquid, so as to finally obtain a test concentration of 0.5%; the other solution is used as it is (at 2%) so as to finally obtain a test concentration of 1%. The Malassezia strains are brought into contact according to the table below: [table] The mixture is stirred and deposited at the surface of the MLNA agar. It is spread, with a sterile scraper, over the entire surface before recovering the excess. It is left to incubate for at least 5 days at 30° C. The antifungal effect of the compound is evaluated via the absence of growth of the Malassezia strain tested. This inhibition is evaluated relative to the growth control. The inhibitions are scored from 0 to 3 via assessment of the density of the culture at the surface of the agar, in comparison with the growth control, in the following way: [table]
# Malassezia restricta = experiment: as above; format: cell-based; settings: for Inhibition score Malassezia restricta: MLNA agar, at least 5 days at 30° C.
# Description: as §1
structure (smiles),measurement,setting,value
CCOc1cc(CCC(C)=O)ccc1O [Compound tested],Growth inhibition of Malassezia globosa (in words),Malassezia globosa; compound at 0.5%,weakly
same,Growth inhibition of Malassezia globosa (in words),Malassezia globosa; compound at 1%,completely inhibits the growth
same,Inhibition score Malassezia globosa,Malassezia globosa; test concentration 0.5%,1 (25% Growth < in the control dish)
same,Inhibition score Malassezia globosa,Malassezia globosa; test concentration 1%,3 (100% No growth)
same,Growth inhibition of Malassezia restricta (in words),Malassezia restricta; compound at 0.5%,very effective
same,Growth inhibition of Malassezia restricta (in words),Malassezia restricta; compound at 1%,completely inhibits the growth
same,Inhibition score Malassezia restricta,Malassezia restricta; test concentration 0.5%,3 (100% No growth)
same,Inhibition score Malassezia restricta,Malassezia restricta; test concentration 1%,3 (100% No growth)
